Results: patent publication US10576064B2, “Spiro[3H-indole-3,2′-pyrrolidin]-2(1H)-one compounds and derivatives as MDM2-P53 inhibitors” (Boehringer Ingelheim International GmbH, priority 2014, dated 2020)

The compounds below were run against p53-MDM2 interaction (GST-MDM2 protein aa 23-117 / biotinylated p53 wt peptide) (Homo sapiens (Human), UniProt Q00987) (assay: MDM2-p53 Inhibition AlphaScreen). Settings: 20 nM GST-MDM2 (aa 23-117), 20 nM biotinylated p53 wt peptide.
Format: biochemical
Description: MDM2-p53 Inhibition AlphaScreen

| SMILES | IC50 [nM] |
| --- | --- |
| O=C1NCC[C@H]2[C@@H]1[C@H](c1cccc(Cl)c1F)[C@]1(C(=O)Nc3cc(Cl)ccc31)N2CC1CC1 [Compound I-1] | 86 |
| O=C1NCC[C@H]2[C@@H]1[C@H](c1cccc(Cl)c1F)[C@]1(C(=O)Nc3cc(Cl)ccc31)N2CC1CC1 [Compound I-2] | 112 |
| O=C1NCC[C@H]2[C@@H]1[C@H](c1cccc(Cl)c1)[C@]1(C(=O)Nc3cc(Cl)ccc31)N2CC1CC1 [Compound I-3] | 263 |
| CCOc1cccc(CN2[C@H]3CCNC(=O)[C@H]3[C@H](c3cccc(Cl)c3F)[C@]23C(=O)Nc2cc(Cl)ccc23)c1 [Compound I-5] | 17 |
| CCOc1cccc(CN2[C@H]3CCNC(=O)[C@H]3[C@H](c3cccc(Cl)c3)[C@]23C(=O)Nc2cc(Cl)ccc23)c1 [Compound I-7] | 30 |
| CCOc1cccc(CN2[C@H]3CCNC(=O)[C@H]3[C@H](c3cccc(Cl)c3F)[C@]23C(=O)Nc2nc(Cl)ccc23)c1 [Compound I-9] | 30 |
| O=C1NCC[C@H]2[C@@H]1[C@H](c1cc(Br)cc(Cl)c1F)[C@]1(C(=O)Nc3cc(Cl)ccc31)N2CC1CC1 [Compound I-11] | 462 |
| CC1CC1CN1[C@H]2CCNC(=O)[C@H]2[C@H](c2cccc(Cl)c2F)[C@]12C(=O)Nc1cc(Cl)ccc12 (stereo partly shown) [Compound I-13] | 272 |
| CC(C)(C)CN1[C@H]2CCNC(=O)[C@H]2[C@H](c2cccc(Cl)c2F)[C@]12C(=O)Nc1cc(Cl)ccc12 [Compound I-15] | 152 |
| O=C1NCC[C@H]2[C@@H]1[C@H](c1cccc(Cl)c1F)[C@]1(C(=O)Nc3cc(Cl)c(F)cc31)N2CC1CC1 [Compound I-17] | 324 |
| O=C1NCC[C@H]2[C@@H]1[C@H](c1cccc(Cl)c1F)[C@]1(C(=O)Nc3cc(Cl)ccc31)N2CC1CCC1 [Compound I-19] | 240 |
| O=C1NCC[C@H]2[C@@H]1[C@H](c1cccc(Cl)c1F)[C@]1(C(=O)Nc3cc(Br)ccc31)N2CC1CC1 [Compound I-21] | 64 |
| Cc1ccc2c(c1)NC(=O)[C@]21[C@@H](c2cccc(Cl)c2F)[C@@H]2C(=O)NCC[C@@H]2N1CC1CC1 [Compound I-23] | 290 |
| O=C1NCC[C@H]2[C@@H]1[C@H](c1cccc(Cl)c1F)[C@]1(C(=O)Nc3cc(I)ccc31)N2CC1CC1 [Compound I-25] | 324 |
| O=C1OCC[C@H]2[C@@H]1[C@H](c1cccc(Cl)c1F)[C@]1(C(=O)Nc3cc(Cl)ccc31)N2CC1CC1 [Compound I-37] | 292 |
| O=C1NC[C@H]2[C@@H]1[C@H](c1cccc(Cl)c1F)[C@]1(C(=O)Nc3cc(Cl)ccc31)N2CC1CC1 [Compound I-39] | 32 |
| O=C1NC[C@H]2[C@@H]1[C@H](c1cccc(Cl)c1F)[C@]1(C(=O)Nc3cc(Cl)ccc31)N2CC1CC1 [Compound I-40] | 33 |
| CCOc1cccc(CN2[C@H]3CNC(=O)[C@H]3[C@H](c3cccc(Cl)c3F)[C@]23C(=O)Nc2cc(Cl)ccc23)c1 [Compound I-43] | 8 |
| COC(=O)c1ccc(N2CC[C@H]3[C@@H](C2=O)[C@H](c2cccc(Cl)c2F)[C@]2(C(=O)Nc4cc(Cl)ccc42)N3CC2CC2)cc1 [Compound I-63] | 103 |
| COC(=O)c1ccc(N2CC[C@H]3[C@@H](C2=O)[C@H](c2cccc(Cl)c2F)[C@]2(C(=O)Nc4cc(Cl)ccc42)N3CC2CC2C)cc1 (stereo partly shown) [Compound I-69] | 447 |
| CCOc1cccc(CN2[C@H]3CCN(c4ccc(C(=O)OC)cc4)C(=O)[C@H]3[C@H](c3cccc(Cl)c3F)[C@]23C(=O)Nc2cc(Cl)ccc23)c1 [Compound I-71] | 68 |
| O=C1[C@@H]2[C@H](CCN1c1ccc(-c3nnn[nH]3)cc1)N(CC1CC1)[C@@]1(C(=O)Nc3cc(Cl)ccc31)[C@H]2c1cccc(Cl)c1F [Compound I-72] | 17 |
| CC(C)(C)CN1[C@H]2CCN(c3ccc(S(C)(=O)=O)cc3)C(=O)[C@H]2[C@H](c2cccc(Cl)c2F)[C@]12C(=O)Nc1cc(Cl)ccc12 [Compound I-74] | 342 |
| CS(=O)(=O)c1ccc(N2CC[C@H]3[C@@H](C2=O)[C@H](c2cccc(Cl)c2F)[C@]2(C(=O)Nc4cc(Cl)ccc42)N3CC2CC2)cc1 [Compound I-76] | 42 |
| CC1CC1CN1[C@H]2CCN(c3ccc(S(C)(=O)=O)cc3)C(=O)[C@H]2[C@H](c2cccc(Cl)c2F)[C@]12C(=O)Nc1cc(Cl)ccc12 (stereo partly shown) [Compound I-78] | 120 |
| CNS(=O)(=O)c1ccc(N2CC[C@H]3[C@@H](C2=O)[C@H](c2cccc(Cl)c2F)[C@]2(C(=O)Nc4cc(Cl)ccc42)N3CC2CC2)cc1 [Compound I-80] | 93 |
| COC(=O)c1ccc(N2CC[C@H]3[C@@H](C2=O)[C@H](c2cccc(Cl)c2F)[C@]2(C(=O)Nc4cc(Cl)ccc42)N3CC2CC2C)c(OC)c1 (stereo partly shown) [Compound I-82] | 1020 |
| COC(=O)c1ccc(N2CC[C@H]3[C@@H](C2=O)[C@H](c2cccc(Cl)c2F)[C@]2(C(=O)Nc4cc(Cl)ccc42)N3CC2CC2C)c(F)c1 (stereo partly shown) [Compound I-84] | 1180 |

| SMILES | IC50 [nM] |
| --- | --- |
| N#Cc1ccc(N2CC[C@H]3[C@@H](C2=O)[C@H](c2cccc(Cl)c2F)[C@]2(C(=O)Nc4cc(Cl)ccc42)N3CC2CC2)cc1 [Compound I-86] | 159 |
| COCc1cc(N2CC[C@H]3[C@@H](C2=O)[C@H](c2cccc(Cl)c2F)[C@]2(C(=O)Nc4cc(Cl)ccc42)N3CC2CC2)ccn1 [Compound I-90] | 124 |
| O=C1[C@@H]2[C@H](CCN1c1ccncc1)N(CC1CC1)[C@@]1(C(=O)Nc3cc(Cl)ccc31)[C@H]2c1cccc(Cl)c1F [Compound I-92] | 193 |
| CCOc1cccc(CN2[C@@H]3CCN(c4ccc(C(=O)OC)cc4)C(=O)[C@@H]3[C@@H](c3cccc(Cl)c3F)[C@@]23C(=O)Nc2cc(Cl)ccc23)c1 [Compound I-112] | 3290 |
| COC(=O)c1ccc(N2C[C@H]3[C@@H](C2=O)[C@H](c2cccc(Cl)c2F)[C@]2(C(=O)Nc4cc(Cl)ccc42)N3CC2CC2)cc1 [Compound I-123] | 38 |
| COC(=O)c1ccc(N2C[C@H]3[C@@H](C2=O)[C@H](c2cccc(Cl)c2F)[C@]2(C(=O)Nc4cc(Cl)ccc42)N3CC2CC2)c(OC)c1 [Compound I-125] | 347 |
| O=C(O)c1ccc(N2CC[C@H]3[C@@H](C2=O)[C@H](c2cccc(Cl)c2F)[C@]2(C(=O)Nc4cc(Cl)ccc42)N3CC2CC2)cc1 [Compound I-170] | 11 |
| O=C(O)c1ccc(N2CC[C@H]3[C@@H](C2=O)[C@H](c2cccc(Cl)c2F)[C@]2(C(=O)Nc4cc(Cl)ccc42)N3CC2CC2)cc1 [Compound I-171] | 4 |
| O=C(O)c1ccc(N2CC[C@@H]3[C@H](C2=O)[C@@H](c2cccc(Cl)c2F)[C@@]2(C(=O)Nc4cc(Cl)ccc42)N3CC2CC2)cc1 [Compound I-172] | 302 |
| O=C(O)c1ccc(N2CC[C@H]3[C@@H](C2=O)[C@H](c2cccc(Cl)c2F)[C@]2(C(=O)Nc4cc(Cl)c(F)cc42)N3CC2CC2)cc1 [Compound I-173] | 29 |
| O=C(O)c1cccc(N2CC[C@H]3[C@@H](C2=O)[C@H](c2cccc(Cl)c2F)[C@]2(C(=O)Nc4cc(Cl)ccc42)N3CC2CC2)c1 [Compound I-175] | 2130 |
| O=C(O)c1ccc(N2CC[C@H]3[C@@H](C2=O)[C@H](c2cccc(Cl)c2)[C@]2(C(=O)Nc4cc(Cl)ccc42)N3CC2CC2)cc1 [Compound I-177] | 16 |
| COc1cc(C(=O)O)ccc1N1CC[C@H]2[C@@H](C1=O)[C@H](c1cccc(Cl)c1F)[C@]1(C(=O)Nc3cc(Cl)ccc31)N2CC1CC1 [Compound I-179] | 71 |
| COc1cc(C(=O)O)ccc1N1CC[C@H]2[C@@H](C1=O)[C@H](c1cccc(Cl)c1)[C@]1(C(=O)Nc3cc(Cl)ccc31)N2CC1CC1 [Compound I-181] | 92 |
| O=C(O)c1ccc(N2CC[C@H]3[C@@H](C2=O)[C@H](c2cccc(Cl)c2F)[C@]2(C(=O)Nc4cc(Cl)ccc42)N3CC2CC2)cn1 [Compound I-183] | 10 |
| CCOc1cccc(CN2[C@H]3CCN(c4ccc(C(=O)O)cc4)C(=O)[C@H]3[C@H](c3cccc(Cl)c3F)[C@]23C(=O)Nc2cc(Cl)ccc23)c1 [Compound I-185] | 3 |
| CCOc1cccc(CN2[C@H]3CCN(c4ccc(C(=O)O)cc4)C(=O)[C@H]3[C@H](c3cccc(Cl)c3F)[C@]23C(=O)Nc2cc(Cl)ccc23)c1 [Compound I-186] | 2 |
| CCOc1cccc(CN2[C@H]3CCN(c4ccc(C(=O)O)cc4[N+](=O)[O-])C(=O)[C@H]3[C@H](c3cccc(Cl)c3F)[C@]23C(=O)Nc2cc(Cl)ccc23)c1 [Compound I-188] | 16 |
| CC1CC1CN1[C@H]2CCN(c3ccc(C(=O)O)cc3F)C(=O)[C@H]2[C@H](c2cccc(Cl)c2F)[C@]12C(=O)Nc1cc(Cl)ccc12 (stereo partly shown) [Compound I-190] | 45 |
| O=C(O)c1ccc(N2CC[C@H]3[C@@H](C2=O)[C@H](c2cccc(Cl)c2F)[C@]2(C(=O)Nc4cc(Cl)ccc42)N3CC2CC2)c([N+](=O)[O-])c1 [Compound I-192] | 40 |
| COc1cc(C(=O)O)ccc1N1CC[C@H]2[C@@H](C1=O)[C@H](c1cccc(Cl)c1F)[C@]1(C(=O)Nc3cc(Cl)ccc31)N2CC1CC1C (stereo partly shown) [Compound I-194] | 114 |
| CC1CC1CN1[C@H]2CCN(c3ccc(C(=O)O)cc3)C(=O)[C@H]2[C@H](c2cccc(Cl)c2F)[C@]12C(=O)Nc1cc(Cl)ccc12 (stereo partly shown) [Compound I-196] | 20 |
| O=C(O)c1ccc(N2CC[C@H]3[C@@H](C2=O)[C@H](c2cccc(Cl)c2F)[C@]2(C(=O)Nc4cc(Cl)ccc42)N3CC2CCC2)cc1 [Compound I-198] | 27 |
| COc1cc(C(=O)O)ccc1N1CC[C@H]2[C@@H](C1=O)[C@H](c1cccc(Cl)c1F)[C@]1(C(=O)Nc3cc(Cl)ccc31)N2CC1CCC1 [Compound I-200] | 134 |
| CC(C)(C)CN1[C@H]2CCN(c3ccc(C(=O)O)cc3)C(=O)[C@H]2[C@H](c2cccc(Cl)c2F)[C@]12C(=O)Nc1cc(Cl)ccc12 [Compound I-202] | 48 |
| O=C(O)c1ccc(N2CC[C@H]3[C@@H](C2=O)[C@H](c2cccc(Cl)c2F)[C@]2(C(=O)Nc4cc(Br)ccc42)N3CC2CC2)cc1 [Compound I-204] | 15 |
| Cc1cc(N2CC[C@H]3[C@@H](C2=O)[C@H](c2cccc(Cl)c2F)[C@]2(C(=O)Nc4cc(Cl)ccc42)N3CC2CC2)cc(C)c1C(=O)O [Compound I-206] | 46 |
